Columns and labels:
Cathepsin S = Cathepsin S (Homo sapiens, UniProt P25774); test: Cathepsin S inhibition assay (fluorogenic peptide substrate); type: biochemical; settings: Table II, compounds of Formula I; read-out: Ki Cat. S
Procedure, shortened: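 Ki values come from nonlinear fitting of inhibited hydrolysis rates, taking free and total inhibitor concentrations as equal. Rates measured as rising fluorescence at 380/450 nm after reaction start with 50 μM final acetyl-HPVK-aminocarbamoylcoumarin.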

Cathepsin K = biological target: T1, Cathepsin K (Homo sapiens, UniProt P43235); test: Cathepsin K inhibition assay (fluorogenic peptide substrate); selectivity ratio vs cathepsin S; type: biochemical; settings: ratio of cathepsin K inhibition constant to cathepsin S inhibition constant; Table II
T1 sequence (P43235 115-329): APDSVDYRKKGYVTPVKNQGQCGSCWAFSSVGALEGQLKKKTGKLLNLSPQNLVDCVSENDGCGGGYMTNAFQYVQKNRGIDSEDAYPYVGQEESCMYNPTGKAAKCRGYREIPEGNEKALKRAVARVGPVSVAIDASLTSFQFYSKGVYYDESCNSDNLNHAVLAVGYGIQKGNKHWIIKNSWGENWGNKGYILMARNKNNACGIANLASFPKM
Procedure, shortened: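 Fluorogenic kinetic assay, started with acetyl-Lys-His-Pro-Lys-aminocarbamoylcoumarin at 40 μM final, hydrolysis followed at ex 380/em 450 nm. Apparent inhibition constants from progress curves, converted to competitive inhibition constants. Selectivity expressed as isozyme inhibition constant divided by cathepsin S inhibition constant.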

Sequence of Cathepsin S (P25774 115-331, species assumed): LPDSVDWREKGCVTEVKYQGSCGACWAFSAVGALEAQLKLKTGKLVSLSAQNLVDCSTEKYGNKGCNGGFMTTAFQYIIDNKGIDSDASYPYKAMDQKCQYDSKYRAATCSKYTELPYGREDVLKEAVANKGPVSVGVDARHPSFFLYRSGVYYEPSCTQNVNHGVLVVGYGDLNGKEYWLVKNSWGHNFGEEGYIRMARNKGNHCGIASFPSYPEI

| SMILES | Ki (Cathepsin S) [nM] | Selectivity for Cat. S over Cat. K (Cathepsin K) |
| --- | --- | --- |
| COc1ccc(NCCNC(=O)[C@H](Cc2ccc(Oc3ccccc3C)cc2)NC(=O)c2cccc(C)c2)cc1 [Compound 66, (S)-N-[1-[2-(4-Methoxy-phenylamino)-ethylcarbamoyl]-2-(4-o-tolyloxy-phenyl)-ethyl]-3-methyl-benzamide] | < 1000 | ++ (++, >100) |
| COc1ccc(NCCNC(=O)[C@H](Cc2ccc(-c3ccc(OC)nc3)cc2)NC(=O)c2cccc(C)c2)cc1 [Compound 292, (S)-N-{1-[2-(4-Methoxy-phenylamino)-ethylcarbamoyl]-2-[4-(6-methoxy-pyridin-3-yl)-phenyl]-ethyl}-3-methyl-benzamide] | < 100 | +++ (+++, >1000) |
| Cc1ccc(-c2ccc(C(=O)N[C@@H](CC3CCCCC3)C(=O)NCCNc3ccc(OC(F)(F)F)cc3)s2)cc1 [Compound 42, 5-p-Tolyl-thiophene-2-carboxylic acid (S)-{2-cyclohexyl-1-[2-(4-trifluoromethoxy-phenylamino)-ethylcarbamoyl]-ethyl}-amide] | < 1000 | + (+, >10) |
| COc1ccc(NCCNC(=O)[C@H](Cc2ccc(-c3ccc(C#N)cc3)cc2)NC(=O)c2cccc(C)c2)cc1 [Compound 276, (S)-N-{2-(4′-Cyano-biphenyl-4-yl)-1-[2-(4-methoxy-phenylamino)-ethylcarbamoyl]-ethyl}-3-methyl-benzamide] | < 100 | +++ (+++, >1000) |
| COc1ccc(NCCNC(=O)[C@@H](NC(=O)c2cccc(C)c2)C(C)OCc2ccccc2)cc1 (stereo partly drawn) [Compound 259, (S)-N-{2-Benzyloxy-1-[2-(4-methoxy-phenylamino)-ethylcarbamoyl]-propyl}-3-methyl-benzamide] | < 1000 | ++ (++, >100) |
| COc1ccc(NCCNC(=O)[C@H](CC2CCCCC2)NC(=O)c2ccc(-c3ccc(Cl)cc3)cc2)cc1 [Compound 170, (S)-4′-Chloro-biphenyl-4-carboxylic acid {2-cyclohexyl-1-[2-(4-methoxy-phenylamino)-ethylcarbamoyl]-ethyl}-amide] | < 10000 | + (+, >10) |
